Patent US20220193084A1, “INHIBITORS OF EZH2 AND METHODS OF USE THEREOF” (Epizyme, Inc., priority 2015, published 2022)

Conditions: human, in vivo
Experimental: Table 10 describes a Phase 1 clinical trial design (sponsor protocol no.: E7438-G000-001, ClinicalTrials.gov identifier: NCT01897571). The study population included subjects with relapsed or refractory solid tumors or B-cell lymphoma. Subjects received a 3+3 dose escalation in expansion cohorts receiving 800 mg BID and 1600 mg BID, respectively, or a cohort for ascertaining the effect of food on dosing at 400 mg BID. The primary endpoint was a determination of recommended phase II dose (RP2D)/maximum tolerated dose (MTD). Secondary endpoints included safety, pharmacokinetics (PK), pharmacodynamics (PD) and tumor response, assessed every 8 wks.

## CCN(c1cc(-c2ccc(CN3CCOCC3)cc2)cc(C(=O)NCc2c(C)cc(C)[nH]c2=O)c1C)C1CCOCC1 [tazemetostat]
  Abdominal pain, All Events, All Grades: 4
  Abdominal pain, All Events, Grade ≥3: 1
  Abdominal pain, All Treatment-Related, All Grades: 1
  Abdominal pain, All Treatment-Related, Grade ≥3: 0
  Anemia, All Events, All Grades: 5
  Anemia, All Events, Grade ≥3: 0
  Anemia, All Treatment-Related, All Grades: 3
  Anemia, All Treatment-Related, Grade ≥3: 0
  Anxiety, All Events, All Grades: 3
  Anxiety, All Events, Grade ≥3: 0
  Anxiety, All Treatment-Related, All Grades: 1
  Anxiety, All Treatment-Related, Grade ≥3: 0
  Asthenia, All Events, All Grades: 23
  Asthenia, All Events, Grade ≥3: 0
  Asthenia, All Treatment-Related, All Grades: 13
  Asthenia, All Treatment-Related, Grade ≥3: 0
  Constipation, All Events, All Grades: 7
  Constipation, All Events, Grade ≥3: 0
  Constipation, All Treatment-Related, All Grades: 2
  Constipation, All Treatment-Related, Grade ≥3: 0
  Decreased appetite, All Events, All Grades: 9
  Decreased appetite, All Events, Grade ≥3: 1
  Decreased appetite, All Treatment-Related, All Grades: 4
  Decreased appetite, All Treatment-Related, Grade ≥3: 0
  Depression, All Events, All Grades: 3
  Depression, All Events, Grade ≥3: 2
  Depression, All Treatment-Related, All Grades: 1
  Depression, All Treatment-Related, Grade ≥3: 0
  Diarrhea, All Events, All Grades: 6
  Diarrhea, All Events, Grade ≥3: 0
  Diarrhea, All Treatment-Related, All Grades: 4
  Diarrhea, All Treatment-Related, Grade ≥3: 0
  Dry skin, All Events, All Grades: 5
  Dry skin, All Events, Grade ≥3: 0
  Dry skin, All Treatment-Related, All Grades: 4
  Dry skin, All Treatment-Related, Grade ≥3: 0
  Dysgeusia, All Events, All Grades: 5
  Dysgeusia, All Events, Grade ≥3: 0
  Dysgeusia, All Treatment-Related, All Grades: 5
  Dysgeusia, All Treatment-Related, Grade ≥3: 0
  Dyspnea, All Events, All Grades: 5
  Dyspnea, All Events, Grade ≥3: 0
  Dyspnea, All Treatment-Related, All Grades: 0
  Dyspnea, All Treatment-Related, Grade ≥3: 0
  Hepatocellular injury, All Events, All Grades: 2
  Hepatocellular injury, All Events, Grade ≥3: 1
  Hepatocellular injury, All Treatment-Related, All Grades: 1
  Hepatocellular injury, All Treatment-Related, Grade ≥3: 1
  Hypertension, All Events, All Grades: 3
  Hypertension, All Events, Grade ≥3: 1
  Hypertension, All Treatment-Related, All Grades: 2
  Hypertension, All Treatment-Related, Grade ≥3: 1
  Hypophosphatemia, All Events, All Grades: 4
  Hypophosphatemia, All Events, Grade ≥3: 0
  Hypophosphatemia, All Treatment-Related, All Grades: 1
  Hypophosphatemia, All Treatment-Related, Grade ≥3: 0
  Insomnia, All Events, All Grades: 3
  Insomnia, All Events, Grade ≥3: 0
  Insomnia, All Treatment-Related, All Grades: 0
  Insomnia, All Treatment-Related, Grade ≥3: 0
  Muscle spasms, All Events, All Grades: 5
  Muscle spasms, All Events, Grade ≥3: 0
  Muscle spasms, All Treatment-Related, All Grades: 3
  Muscle spasms, All Treatment-Related, Grade ≥3: 0
  Nausea, All Events, All Grades: 8
  Nausea, All Events, Grade ≥3: 0
  Nausea, All Treatment-Related, All Grades: 8
  Nausea, All Treatment-Related, Grade ≥3: 0
  Neutropenia, All Events, All Grades: 3
  Neutropenia, All Events, Grade ≥3: 1
  Neutropenia, All Treatment-Related, All Grades: 3
